In patent US5422373A, “Anti-atherosclerotic aryl compounds” (Burroughs Wellcome Co., priority 1990, dated 1995):

Tests used:
[1] = system: cholesterol-cholic acid fed rats; experiment: Determination of hypolipidaemic activity in cholesterol-cholic acid fed rats; assay type: in vivo, rat; conditions: male Sprague-Dawley rats on 0.4% cholesterol, 0.2% cholic acid diet, serum on fourth day
Description: (ii) Determination of hypolipidaemic activity in cholesterol-cholic acid fed rats
Male Sprague-Dawley rats (CD, Charles River) each weighing 200-300 g were used. Hypercholesterolemia was induced in the rats by administration of a diet enriched to 0.4% cholesterol, 0.2% cholic acid. Prior to the administration of the diet, blood samples were collected under halothane anesthesia by cardiac puncture to determine baseline lipid levels. The blood was allowed to clot and serum was obtained for the analysis of total cholesterol, dextran-precipitable lipoproteins cholesterol (VLDL +LDL) and total triglycerides. The rats were divided into groups so that each group had similar average baseline serum lipid levels. Five days after the initial blood sampling, administration of each test compound and the cholesterol-cholic acid-enriched diet was begun. Compounds to be tested by gavage were administered b.i.d. in 0.5% methyl cellulose at 9:00 a.m. and 3:00 p.m. for three days and at 9:00 a.m. on the fourth day. Compounds administered as part of the diet were dissolved in ethanol and sprayed on to the diet. The ethanol was allowed to evaporate and the diet given to the rats for three days. On the fourth day, blood samples were collected and the final serum lipid levels determined. All blood samplings were taken after a four-hour fast. […]

[2] = target: T1, ACAT (Rattus norvegicus, UniProt Q7TQM4); experiment: In vitro assay for the inhibition of ACAT activity; assay type: biochemical; conditions: hepatic microsomes of cholesterol/cholic acid fed male CD rats; [14C]oleoyl-CoA 25 μM
T1 construct: using hepatic microsomes as the source of both ACAT and cholesterol; from tissue; host or cells: liver microsomes of male CD rats fed a 0.8% cholesterol/0.2% cholic acid diet
T1 sequence (Q7TQM4 1-524): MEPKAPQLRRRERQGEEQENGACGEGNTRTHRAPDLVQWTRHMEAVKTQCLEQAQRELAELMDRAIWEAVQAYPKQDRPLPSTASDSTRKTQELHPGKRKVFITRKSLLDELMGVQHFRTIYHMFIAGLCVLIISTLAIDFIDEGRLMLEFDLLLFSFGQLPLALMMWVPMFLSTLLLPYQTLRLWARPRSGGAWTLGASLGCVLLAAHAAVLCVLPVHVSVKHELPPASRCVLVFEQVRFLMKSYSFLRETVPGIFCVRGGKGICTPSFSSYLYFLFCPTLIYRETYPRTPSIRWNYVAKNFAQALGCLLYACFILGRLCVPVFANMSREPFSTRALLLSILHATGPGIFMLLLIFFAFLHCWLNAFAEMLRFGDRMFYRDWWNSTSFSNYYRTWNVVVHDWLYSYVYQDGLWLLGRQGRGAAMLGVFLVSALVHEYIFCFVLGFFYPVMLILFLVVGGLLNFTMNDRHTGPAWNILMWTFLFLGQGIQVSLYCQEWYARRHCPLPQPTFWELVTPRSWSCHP
Description: (i) In vitro assay for the inhibition of ACAT activity
ACAT activity was determined as described by Ross et al by the incorporation of [^14 C]oleoyl-CoA into cholesterol [^14 C]oleate using hepatic microsomes as the source of both ACAT and cholesterol. Microsomes were prepared from the livers of male CD rats fed a 0.8% cholesterol/0.2% cholic acid diet 3.5 days before sacrifice. Various concentrations of a test compound were preincubated with a 0.5mg/ml microsomal suspension and after 15 minutes a 50 μg aliquot was removed and incubated with 25 μM of [^14 C]-enriched oleoyl-CoA for 4 minutes. The reaction was terminated by the addition of 1 ml of ethanol and 4ml of hexane. After shaking, the hexane layer was removed and evaporated to dryness. The hexane extract was then reconstituted in 150 μl of HPLC solvent and injected on to a B&J OD5 Reverse Phase C18 column using an isocratic mobile phase of acetonitrile: isopropanol:heptane (50:40:10) in 0.5% acetic acid at a flow rate of 1.0 ml/min. The product of the reaction, [14C]oleoyl cholesterol, was measured using a Flow One radiometric detector.
The ACAT IC50 value for each compound was determined from a plot of % inhibition from control vs inhibitor concentration.

IC50 [2]: 0.027 µM
Structure (SMILES): CCCCCCCN(Cc1ccc(OCC(OC)OC)cc1)C(=O)Nc1ccc(OC)cc1OC [Synthetic Example 1]
reduction of LDL-cholesterol ([1]; dose of 25 mg/kg): 78% | reduction of LDL-cholesterol ([1]; dose of 50 mg/kg): 92%
